The record followed here is patent US10280156B2, “Heteroaromatic chalcone derivatives and their medical use” (Medizinische Universität Wien, priority 2014, dated 2019).

In one series the test system is K562. In words: Viability test on K562 cells. In kind it is cell-based, human. The note with it: already at low concentrations, no further increase of toxicity at increasing concentrations. How it is done:
(§1) JURKAT and CCRF-CEM (T-cell acute lymphoblastic leukemia), HL60 and K562 representing acute and chronic myeloid leukemia, respectively, the chronic lymphocytic leukemia cell line MEC-1, and the diffuse large B-cell lymphoma cell line U-2940 were cultured in Gibco RPMI 1640+GlutaMAX (Life Technologies, Carlsbad, Calif., USA) supplemented with 10% fetal bovine serum gold (FBS gold; PAA Laboratories, Pasching, Austria) and 1% PenStrep (100 U/ml penicillin and 100 μg/ml streptomycin; PAA Laboratories), and maintained at 37° C. in humidified atmosphere with 5% CO2. […]
(§2) All experiments with hematological cell lines were done using phenol red-free RPMI 1640+L-glutamine (PAA Laboratories) supplemented with 1% PenStrep and 10% FBS gold, except experiments with OCI-Ly7 which were carried out in Gibco IMEM+GlutaMAX and 25 mM HEPES containing 20% FBS gold and 1% PenStrep. Cells were incubated in triplicates with increasing concentrations of the compounds for 48 h, changes in viability were determined using the cell proliferation and cytotoxicity assays EZ4U (Biomedica Group, Austria) and CellTiter-Blue Cell Viability Assay (Promega, Madison, Wis., USA) following instructions of the manufacturers. IC50 values were calculated from two independent experiments using GraphPad Prism 5 software. […]

Another series deals with MEC1. In words: Viability test (CellTiter-Blue/EZ4U) on MEC1 cells, 48 h. The note with it: Homo sapiens, MEC1, 48 h, 48 h incubation; nd = no significant cytotoxic activity up to 100 μM. Type of series: cell-based, human. How it is done:
(§3) JURKAT and CCRF-CEM (T-cell acute lymphoblastic leukemia), HL60 and K562 representing acute and chronic myeloid leukemia, respectively, the chronic lymphocytic leukemia cell line MEC-1, and the diffuse large B-cell lymphoma cell line U-2940 were cultured in Gibco RPMI 1640+GlutaMAX (Life Technologies, Carlsbad, Calif., USA) supplemented with 10% fetal bovine serum gold (FBS gold; PAA Laboratories, Pasching, Austria) and 1% PenStrep (100 U/ml penicillin and 100 μg/ml streptomycin; PAA Laboratories), and maintained at 37° C. in humidified atmosphere with 5% CO2. The diffuse large B-cell lymphoma cell line OCI-LY7 was cultured in Gibco IMDM+GlutaMAX and 25 mM HEPES (Life Technologies) containing 20% FBS gold and 1% PenStrep.
(§4) All experiments with hematological cell lines were done using phenol red-free RPMI 1640+L-glutamine (PAA Laboratories) supplemented with 1% PenStrep and 10% FBS gold, except experiments with OCI-Ly7 which were carried out in Gibco IMEM+GlutaMAX and 25 mM HEPES containing 20% FBS gold and 1% PenStrep. Cells were incubated in triplicates with increasing concentrations of the compounds for 48 h, changes in viability were determined using the cell proliferation and cytotoxicity assays EZ4U (Biomedica Group, Austria) and CellTiter-Blue Cell Viability Assay (Promega, Madison, Wis., USA) following instructions of the manufacturers. IC50 values were calculated from two independent experiments using GraphPad Prism 5 software.
(§5) Initially, compounds were biologically tested in six concentration steps (0.1 μM; 1 μM; 5 μM; 10 μM; 50 μM; and 100 μM) using the CellTiter-Blue Cell Viability Assay (Promega, Madison, Wis., USA) and an incubation time of 48 hours. […] IC50 values were calculated from at least two independent experiments with 3 replicates each. In order to evaluate the biologic activity of the new compounds, cytotoxicity was compared to that of fludarabine, an already approved drug for the treatment of various B-cell malignancies. […] Differences in IC50 values for the different cell types can be explained by the biological and genetic particularities of each subtype of B-cell Non-Hodgkin lymphoma (Stacchini A et al. Leukemia Res 1999, 23, 127-136; Sambade C et al. Int J Cancer 2006, 118, 555-563; Chang H et al. Leukemia lymphoma 1995, 19, 165-171; Tweeddale M E et al. Blood 1987, 69, 1307-1314; Tweeddale M et al. Blood 1989, 74, 572-578).
In general terms: The colour change of resazurin is a common sign of viable cells or microbes.

A further series concerns SU-DHL6. Nature of the series: Viability test on SU-DHL6 cells. In kind it is cell-based, human. How it is done:
as §4
(§6) Hematologic malignancies are highly heterogeneous in their biology and behavior. This and the fact that some patient groups are resistant to therapy underlines the urgent need for new therapeutic drugs. Compound 15 has therefore been tested on other cell lines representing a variety of hematologic neoplasms: two T-cell acute leukemia cell lines (CCRF, Jurkat), two myeloid leukemia cell lines (HL60, K562), and two additional B-cell lines (SU-DHL6, SU-DHL9). Viability was assessed as described in the methods section above. […] An exception was the chronic myeloid leukemia line K562. […]

The subject of another series is HL60. In words: Viability test on HL60 cells. In kind it is cell-based, human. How it is done: as §1, §2
The next series has as its system Jurkat. Nature of the series: Viability test on Jurkat cells. Type of series: cell-based, human. How it is done: as §1, §2
Series [1] deals with primary cells from CLL patients. Nature of the series: Combination treatment of CLL primary cells with compound 15 and a further anticancer agent. In kind it is cell-based, human. The method, then: Peripheral blood mononuclear cells (PBMCs) of CLL patients were incubated in increasing concentrations of one of the above-mentioned anticancer agents alone or increasing anticancer agent concentrations plus compound 15 in two different concentrations under standard conditions for 48 h before viability was determined (CellTiterBlue, Promega). Primary cells from 5 (ABT199) or 6 patients (CAL101, PCI32765) were included.

The test system of the next series is U-2940. Nature of the series: Viability test on U-2940 cells, 48 h. Type of series: cell-based, human. The note with it: 48 h incubation; nd = no significant cytotoxic activity up to 100 μM. How it is done: as §3, §4, §5
Another series concerns CCRF. In words: Viability test on CCRF cells. Type of series: cell-based, human. How it is done:
as §1, §2

Another series relates to SU-DHL9. In words: Viability test on SU-DHL9 cells. In kind it is cell-based, human. How it is done: as §4, §6
The next series has as its system M2-10B4. Nature of the series: Viability test on mouse fibroblast cell line M2-10B4, 48 h. The settings on record: Mus musculus, M210B4, 48 h, 48 h incubation; mouse fibroblast cell line. In kind it is cell-based. How it is done:
as §4
Structurally seen, the small molecule compound 1 represents a typical chalcone scaffold. It is characterized by an ortho-ethoxy-substituted phenyl part as ring A and a 2-naphthyl moiety symbolizing ring B. The focus of the present study was to guide the systematic identification of a growth inhibitor with specificity to neoplastic cells, as cytotoxicity towards healthy cells is mostly associated with adverse effects, which can be related to morbidity and mortality of the patient (Milligan D W et al. Brit J Haematol 2006, 135, 450-474). To discriminate in vitro between structural elements necessary for potent cytotoxicity towards tumor cells which, at the same time, clearly show less activity on normal cells, the compounds were additionally tested on the murine bone marrow fibroblast cell line M2-10B4. This cell line is regularly used as feeder layer when cultured with patient cells providing additional support and survival signals in particular in drug screens (Kurtova A V et al. Blood 2009, 114, 4441-4450).
as §5

Where [2] appears, read: Homo sapiens, T-cell acute leukemia, nd = no significant cytotoxic activity up to 100 μM.

Several values for one entry are separate records, joined by “and”; a condition that tells them apart may be missing. Equal values may be shown once.

One may read the IC50 as the point on the concentration scale where inhibition reaches its midpoint. Broadly, the melting point is the temperature, or range, at which the solid turns liquid. `CCOc1ccccc1C(=O)/C=C/c1cc2ccccc2[nH]1` [Compound 15, 1-(2-Ethoxyphenyl)-3-(1H-indole-2-yl)-2-propen-1-one] returned a melting point of 124 to 126 °C. In the series on K562, the “viability reduced down to” value turned out to be 60%. In addition, the IC50 in the series with MEC1 turned out to be 22 nM. For the same compound, in the series on SU-DHL6 (Homo sapiens, SU-DHL-6, B-cell lymphoma, nd = no significant cytotoxic activity up to 100 μM), the IC50 amounted to 60 nM. Besides, the “viability, % of control” value with SU-DHL6 (SU-DHL6, at concentrations <1 μM) is listed as “less than 30 % of control”. Besides, the “viability, % of control” value with HL60 (HL60, at concentrations <1 μM) is on record as “less than 30 % of control”. The compound further came in with an IC50 with HL60 (Homo sapiens, HL-60, myeloid leukemia, nd = no significant cytotoxic activity up to 100 μM) of 20 nM. The compound further displayed an IC50 in the series with Jurkat (setting [2]) of 40 nM. Moreover, the “viability, % of control” value in the series on Jurkat (at concentrations <1 μM) was “less than 30 % of control”. The “effect of adding compound 15 to ABT199 on cytotoxicity” value in [1] (combination with ABT199, N=5, 48 h) was “synergistic effect”. In series [1] (combination with CAL101 (idelalisib), N=6, 48 h), the “effect of adding compound 15 to CAL101 on cytotoxicity” value was “synergistic effect”. For the same compound, in [1] (combination with PCI32765 (ibrutinib), N=6, 48 h), the “effect of adding compound 15 to PCI32765 on cytotoxicity” value was “synergistic effect”. The IC50 in the series on U-2940 is 50 nM and 52 nM. The “viability, % of control” value in the series on CCRF (CCRF, at concentrations <1 μM) is “less than 30 % of control”. Further, the IC50 in the series on CCRF (setting [2]) amounted to 30 nM. For the same compound, the IC50 in the series with SU-DHL9 (Homo sapiens, B-cell lymphoma, nd = no significant cytotoxic activity up to 100 μM) turned out to be 30 nM. In the series on SU-DHL9 (SU-DHL9, at concentrations <1 μM), the “viability, % of control” value is given as “less than 30 % of control”. The same compound displayed an IC50 in the series on M2-10B4 of 19200 nM.
